Source: patent publication US20230242669A1, “ANTIBODY THAT BINDS ERBB-2 AND ERBB-3” (Merus N.V., priority 2014, published 2023)

Legend:
[1] = tested on: HER2+, HER2++ and HER2+++ breast and gastric cancer cell lines; assay: FACS binding to cell lines with different HER2 levels; set-up: species or system human; conditions: HER2++ and HER2+ cells
Description: Cells were considered HER2+++ if they express millions of HER2 copies and/or are HER2 gene amplified. The following cell lines were used: MCF-7 (HER 2 +); MDA-MB-468 (HER2 +, MKN-45 (HER2 +), MDA-MB-175 (HER2+), MDA-MB-453 (HER2 ++), MDA-MB-361(HER2 ++), ZR-75-1(HER2 ++), JIMT-1 (HER2+++), BT-474 (HER2+++), SKBR-3 (HER2+++), SK-OV-3 (HER2+++), N87 (HER2+++). Cells of an exponentially grown culture were harvested by trypsin and diluted to 10^6 cells/ml in FACS buffer (PBS/0.5%BSA/0.5 mM EDTA). 1-2 10^5 cells were added to each well in a U-bottom 96 well plate. Cells were centrifuged for 2 minutes at 300 g at 4° C. Supernatant was discarded by inverting plate(s) above, followed by flicking once. 50 µl of each IgG sample was added in a serial dilution from 3.16 ng- 10 µg/ml and incubated for 1H on ice. Cells were centrifuged once, supernatant was removed and cells were washed twice with FACS buffer. 50 µl diluted 1:100 mouse anti human IgG gamma PE (INVITROGEN®) was added and incubated for 30-60 minutes on ice in the dark. […] Cells were analysed on a FACSCanto Flow cytometer in a HTS setting. The quantity of antibody bound was assessed by median fluorescence. Data were plotted and the area under the curve (AUC, a cumulative measurement of the median fluorescence intensity) was determined for each antibody per cell line tested (FIG. 26).

[2] = tested on: HER2:HER3 signaling in JIMT-1 tumors; assay: VeraTag analysis of JIMT-1 tumors; assay type: in vivo, mice
Description: Next, samples were paraffin-embedded. Sections of 7 um in thickness were sliced with a microtome (LEICA) and placed on positively charged glass slides (VWR) with serial number labeled. Slides were air-dried for 30 min and then baked in a heated oven set at 60° C. Next samples were processed for different VeraTag analysis. Total HER2 analysis (HT2) according to U.S. Pat. Appl. No. 12/340,436, total HER3 analysis (H3T) according to U.S. Pat. No. 8,349,574; U.S. Pat. Appl. No. 2013/0071859 and finally HER2-HER3 heterodimer (H23D), HER3pY1289 (H3pY1289) and HER3-PI3 kinase (H3PI3K) according to Int′l Patent Appl. No. PCT/US2014/033208.

[3] = tested on: BT-474 and SKBR-3 cells; assay: BT-474 and SKBR-3 growth in […] with HRG (morphology, PCA); assay type: cell-based, human
Description: The cells were tested at the company Ocello based in Leiden, the Netherlands that grows cells in three dimensional […]® and uses principle component analysis to distinguish non-treated cells from treated cells. 2000 SK-BR-3 or 2250 BT474 cells were seeded in 15µl […]® per well of a 384 well plate (Greiner 781091 ). […] In addition a dose-dependent titration of HRG was included as a positive control. Each dose was tested in quadruplicate. Cells were incubated for 7 days in a cell culture incubator at 37° C., 5% CO2. Next, the cells were fixed and actin cytoskeleton of the cells was stained with phalloidin and the nuclei are stained with Hoechst. Next, fluorescent images were taken at different levels through the gel (Z-stack) and the images were superimposed. A broad range of morphological features were measured (800 in total). Only features that differed between medium and HRG treatments were selected for analysis. […] Both multiparameter and single parameter analyses were made. For single parameter measurements, t-tests were performed to compare treatments (HRG or antibody) to medium. P-values for each point were determined. […]
The assay was performed in […]®, as described above, and morphological features were analyzed. […]

[4] = tested on: JIMT-1 cells; assay: JIMT-1 proliferation in soft agar; assay type: cell-based, human; conditions: 10-0.003 µg/ml, 8 days
Description: To this aim 96 well suspension cell culture plates were prepared. 100 µL of the soft agar bottom layer (0.6% final concentration in complete medium) was poured and left to solidify. 50 µL of the soft agar top layer (0.4% final concentration) containing 10.000 JIMT-1 cells/well were then added on top, solidified and such 96 well plates incubated overnight at 37° C., 10% CO2. […] Subsequently, the assay was incubated in cell culture incubators for 8 days. Finally, the cells were incubated with Alamar Blue for 3-5 h at 37° C. and fluorescence intensity was determined (excitation: 560 nm; emission: 590 nm). […] (FIG. 8).

[5] = tested on: SKBR-3 and N87 cells; assay: Internalization of pH-sensitive dye labelled antibodies; assay type: cell-based, human; conditions: 100 nM labelled antibody, 1 ng/ml HRG

PB4188: bispecific HER2xHER3 IgG: HER2 arm MF3958, HER3 arm MF3178
Binding affinity compared to trastuzumab (AUC of median fluorescence) [1]: higher binding affinity | Total HER2, HER3 or phosphorylated HER3 in tumors versus controls ([2]; 25 mg/kg): no difference | HER2:HER3 dimers in tumors versus untreated controls ([2]; 25 mg/kg, both dosing regimens): significant PB4188 mediated reduction in HER2:HER3 dimers | HER3-p85 (PI3K) in tumors versus untreated controls ([2]; 4H after dosing): significant reduction in HER3-p85 (PI3K) | Activity compared to pertuzumab + trastuzumab, PB3448 and MEHD7945A ([3]; BT-474 and SKBR-3, in the presence of HRG): superior activity | Effect on HRG induced proliferation and branching/invasion phenotype ([3]; SKBR-3, 10 ng/ml HRG): completely revert the HRG induced phenotype | Inhibition of JIMT-1 proliferation [4]: dose dependent inhibition of JIMT-1 proliferation | Internalization [5]: internalizes to the same extend as trastuzumab
